Results reported in PubChem BioAssay AID1259408 (Genetic Toxicology Data Bank (GENE-TOX), 2018).
The source made the active and inactive calls. The rule behind the calls is not given here.

Tested on: GENE-TOX genotoxicity assays, various organisms and cells
Assay: GENE-TOX mutagenicity studies
Settings: for call: Assay Type: In vivo carcinogenicity studies, Assay Code: CCG+L
[1] = Species/Cell Type: Nonhuman, Assay Type: Sister-chromatid exchange (SCE) in vitro, Assay Code: SC2+, Evaluation Type: Evaluation B (Post-1980)
[2] = Species/Cell Type: Salmonella typhimurium (one or more of the five standard strains: TA98, TA100, TA1535, TA1537, and TA1538), Assay Type: Histidine reverse gene mutation, Ames assay, Assay Code: SAL+*, Activation: With metabolic activation, Evaluation Type: Evaluation A (Pre-1980)
[3] = Species/Cell Type: Salmonella typhimurium (one or more of the five standard strains: TA98, TA100, TA1535, TA1537, and TA1538), Assay Type: Histidine reverse gene mutation, Ames assay, Assay Code: SAL+, Evaluation Type: Evaluation A (Pre-1980)
[4] = Species/Cell Type: Nonhuman, Evaluation Type: Evaluation A (Pre-1980)
[5] = Species/Cell Type: Saccharomyces cerevisiae, Assay Type: Mitotic recombination or gene conversion, Assay Code: YEH-, Evaluation Type: Evaluation A (Pre-1980)
[6] = Species/Cell Type: Salmonella typhimurium (one or more of the five standard strains: TA98, TA100, TA1535, TA1537, and TA1538), Assay Type: Histidine reverse gene mutation, Ames assay, Assay Code: SAL-, Evaluation Type: Evaluation A (Pre-1980)
[7] = Species/Cell Type: Salmonella typhimurium (one or more of the five standard strains: TA98, TA100, TA1535, TA1537, and TA1538), Assay Type: Histidine reverse gene mutation, Ames assay, Assay Code: SALT, Evaluation Type: Evaluation A (Pre-1980)

CN(Cc1ccccc1)N=O
mutagenic call (Species/Cell Type: Arabidopsis species, Assay Type: Gene mutation, Assay Code: ARM+D, Dose Response: With dose response, Evaluation Type: Evaluation A (Pre-1980)): active; positive
mutagenic call (Species/Cell Type: Drosophila melanogaster, Assay Type: Sex-linked recessive lethal gene mutation, Assay Code: SRL+, Evaluation Type: Evaluation A (Pre-1980)): active; positive
mutagenic call [1]: active; positive
mutagenic call [2]: active; positive
mutagenic call (Species/Cell Type: Salmonella typhimurium, Assay Type: Forward and reverse gene mutation, host-mediated assay, Assay Code: HMA+, Evaluation Type: Evaluation A (Pre-1980)): active; positive

CC[C@H]1OC(=O)[C@H](C)[C@@H](O[C@H]2C[C@@](C)(OC)[C@@H](O)[C@H](C)O2)[C@H](C)[C@@H](O[C@@H]2O[C@H](C)C[C@H](N(C)C)[C@H]2O)[C@](C)(O)C[C@@H](C)C(=O)[C@H](C)[C@@H](O)[C@]1(C)O
mutagenic call (Species/Cell Type: Escherichia coli polA (W3119 vs P3478), Assay Type: Rec-assay, DNA effects (bacterial DNA repair), Assay Code: RE1-, Evaluation Type: Evaluation A (Pre-1980)): inactive; negative

C=C1C(=O)O[C@@H]2C[C@@H](C)[C@@H]3C[C@H](O)O[C@@H](O)[C@@]3(C)C[C@H]12
mutagenic call [3]: active; positive

[Cl][Pd][Cl]
mutagenic call (Species/Cell Type: Bacillus subtilis (H17 vs M45), Assay Type: Rec-assay, spot test, DNA effects (bacterial DNA repair), Assay Code: REW-, Evaluation Type: Evaluation A (Pre-1980)): inactive; negative

N=C1C=CC(=C(c2ccc(N)cc2)c2ccc(N)cc2)C=C1
mutagenic call (Species/Cell Type: Escherichia coli polA (W3119 vs P3478), Assay Type: Rec-assay, DNA effects (bacterial DNA repair), Assay Code: RE1+, Evaluation Type: Evaluation A (Pre-1980)): active; positive
mutagenic call (Species/Cell Type: Fischer rat embryo (RLV/1706) cells, Assay Type: Cell transformation, viral enhanced, Assay Code: CTR+, Evaluation Type: Evaluation A (Pre-1980)): active; positive
mutagenic call (Species/Cell Type: Mouse (BALB/c-3T3) cells, Assay Type: Cell transformation, Assay Code: CTB+D, Dose Response: With dose response, Evaluation Type: Evaluation A (Pre-1980)): active; positive
call [4]: active; positive
mutagenic call [5]: inactive; negative
mutagenic call [6]: inactive; negative
mutagenic call (Species/Cell Type: Salmonella typhimurium, Assay Type: Forward and reverse gene mutation, host-mediated assay, Assay Code: HMA-, Evaluation Type: Evaluation A (Pre-1980)): inactive; negative
mutagenic call (Species/Cell Type: Syrian hamster embryo (SHE) cells, Assay Type: Cell transformation, clonal assay, Assay Code: CTCT, Evaluation Type: Evaluation A (Pre-1980)): no conclusion

COc1ccc2nc3cc(Cl)ccc3c(NCCCSCCCl)c2n1
mutagenic call (Species/Cell Type: Chinese hamster ovary (CHO) cells, Assay Type: Forward gene mutation at the HPRT locus, Assay Code: CHO+, Evaluation Type: Evaluation B (Post-1980)): active; positive

ClN1CCCCC1
mutagenic call (Species/Cell Type: Mammalian polychromatic erythrocytes, Assay Type: Micronucleus test, chromosome aberrations, Assay Code: MNT-, Evaluation Type: Evaluation B (Post-1980)): inactive; negative

C=CCNC(=O)Nc1nc(-c2ccccc2)cs1
mutagenic call (Species/Cell Type: Salmonella typhimurium, Assay Type: Forward and reverse gene mutation, host-mediated assay, Assay Code: HMAT, Evaluation Type: Evaluation A (Pre-1980)): no conclusion

CCCCOc1ccc(CC(=O)NOS(=O)(=O)O)cc1
mutagenic call [1]: active; positive

COc1nc2c(c(=O)n(C)c(=O)n2C)n1C
mutagenic call (Species/Cell Type: Allium cepa, Assay Type: Chromosome aberrations, Assay Code: ALC+D, Dose Response: With dose response, Evaluation Type: Evaluation A (Pre-1980)): active; positive
mutagenic call (Species/Cell Type: Vicia faba, Assay Type: Chromosome aberrations, Assay Code: VIC+, Evaluation Type: Evaluation A (Pre-1980)): active; positive

CC[N+](=O)[O-]
mutagenic call (Species/Cell Type: Mammalian polychromatic erythrocytes, Assay Type: Micronucleus test, chromosome aberrations, Assay Code: MNTT, Evaluation Type: Evaluation A (Pre-1980)): no conclusion

Cc1ccc(S(=O)(=O)NCl)cc1
mutagenic call (Species/Cell Type: Mammalian polychromatic erythrocytes, Assay Type: Micronucleus test, chromosome aberrations, Assay Code: MNTT, Evaluation Type: Evaluation B (Post-1980)): no conclusion

CCN(CCCC(=O)O)N=O
mutagenic call [3]: active; positive

FC(F)F
mutagenic call (Species/Cell Type: Drosophila melanogaster, Assay Type: Sex-linked recessive lethal gene mutation, Assay Code: SRLT, Evaluation Type: Evaluation A (Pre-1980)): no conclusion

O.O.O.O.O.O.O.O.O.O=[N+]([O-])[O-].O=[N+]([O-])[O-].O=[N+]([O-])[O-].[Cr+3]
mutagenic call [1]: active; positive

C1=CC2C3C=CC(C3)C2C1 (stereo not given)
mutagenic call [5]: inactive; negative
mutagenic call [6]: inactive; negative

Cc1cc2ccccc2c2ccc3c(c12)CCC3=O
mutagenic call [2]: active; positive

COc1cc([N+](=O)[O-])ccc1N=Nc1ccccc1
mutagenic call [7]: no conclusion

CCCOc1ccc(CC(=O)OC)cc1CSC(=N)N
mutagenic call (Species/Cell Type: Saccharomyces cerevisiae, Assay Type: Reverse gene mutation, Assay Code: YERT, Evaluation Type: Evaluation A (Pre-1980)): no conclusion

CCN(CC)CCOC(=O)c1ccc(N)cc1
mutagenic call (Species/Cell Type: Escherichia coli polA (W3119 vs P3478), Assay Type: Rec-assay, DNA effects (bacterial DNA repair), Assay Code: RE1T, Evaluation Type: Evaluation A (Pre-1980)): no conclusion
mutagenic call [7]: no conclusion

O=[N+]([O-])c1ccc2c(ccc[n+]2[O-])c1
mutagenic call (Species/Cell Type: Human diploid fibroblasts, Assay Type: Unscheduled DNA synthesis (UDS) in vitro, DNA effects, Assay Code: UDH-, Evaluation Type: Evaluation A (Pre-1980)): inactive; negative

CCCCC(CC)COC(=O)c1ccccc1C(=O)O (stereo not given)
mutagenic call (Species/Cell Type: Chinese hamster ovary (CHO) cells, Assay Type: Forward gene mutation at the HPRT locus, Assay Code: CHOT, Evaluation Type: Evaluation B (Post-1980)): no conclusion
mutagenic call (Species/Cell Type: Nonhuman, Assay Type: Sister-chromatid exchange (SCE) in vitro, Assay Code: SC2-, Evaluation Type: Evaluation B (Post-1980)): inactive; negative

NCCc1c[nH]c2ccc(O)cc12 (tested in a mixture with another compound)
mutagenic call (Species/Cell Type: Drosophila melanogaster, Assay Type: Aneuploidy, whole sex chromosome loss, chromosome aberrations, Assay Code: DACTM, Evaluation Type: Evaluation A (Pre-1980)): no conclusion
mutagenic call (Species/Cell Type: Drosophila melanogaster, Sex: Male, Assay Type: Heritable translocation test, chromosome aberrations, Assay Code: DHTT, Evaluation Type: Evaluation A (Pre-1980)): no conclusion

ClC1CO1 (stereo not given)
mutagenic call (Species/Cell Type: Chinese hamster lung (V79) cells, Assay Type: Forward gene mutation at the HPRT or ouabain locus, Assay Code: V79+, Evaluation Type: Evaluation A (Pre-1980)): active; positive
call [4]: active; positive
mutagenic call (Species/Cell Type: Saccharomyces cerevisiae, Assay Type: Mitotic recombination or gene conversion, Assay Code: YEC+, Evaluation Type: Evaluation A (Pre-1980)): active; positive
mutagenic call [3]: active; positive
mutagenic call (Species/Cell Type: Schizosaccharomyces pombe, Assay Type: Reverse gene mutation, Assay Code: YEZ+, Evaluation Type: Evaluation A (Pre-1980)): active; positive

CNC(=O)N(C)N=O
mutagenic call (Species/Cell Type: Arabidopsis species, Assay Type: Gene mutation, Assay Code: ARM+, Evaluation Type: Evaluation A (Pre-1980)): active; positive
mutagenic call [3]: active; positive
mutagenic call (Species/Cell Type: Zea mays (corn), Assay Type: Gene mutation, Assay Code: ZEM+D, Dose Response: With dose response, Evaluation Type: Evaluation A (Pre-1980)): active; positive

CC(=O)Nc1nc(NC(C)=O)nc(-c2ccc([N+](=O)[O-])o2)n1
mutagenic call [3]: active; positive

O=c1[nH]c(Cl)c(Cl)cc1Cl
mutagenic call (Species/Cell Type: Nonhuman, Assay Type: Sister-chromatid exchange (SCE) in vitro, Assay Code: SC2T, Evaluation Type: Evaluation B (Post-1980)): no conclusion
mutagenic call (Species/Cell Type: Nonhuman, Assay Type: Sister-chromatid exchange (SCE) in vivo, Assay Code: SC3-, Evaluation Type: Evaluation B (Post-1980)): inactive; negative
